According to patent US20150125889A1, “IN VITRO DETECTION OF MICROORGANISMS WITH AZOREDUCTASE ACTIVITY” (BIOMÉRIEUX, priority 2012, published 2015):

Tests used:
Assay in all cases: Reduction of azo substrates over 24 hours at 35° C., microtitration plate (Example 1)
Format in all cases: cell-based
[1] = system: Escherichia coli; design: key to RED (substrate reduced or not): RED indicates whether the substrate is reduced (Y) or not (N); RED indicates whether the substrate is reduced (Y) or not (N); key to Co (growth, absorbance at 660 nm) / Decol (substrate decolourized, decrease in absorbance) / Fluo (fluorescence multiplied by 2 relative to substrate-free control): The symbol “+” means good growth/decolourization/significant increase in fluorescence; The symbol “+/−” means difficult growth; The symbol “−” means that there is no growth/decolourization/significant increase in fluorescence; conditions: E. coli, substrate 35 mg/l
Protocol: (§1) Reduction of the “azo” function of the substrates listed in Table I by the species listed in Table II, each species being represented by a strain, is tested in a microtitration plate.
(§2) The reaction medium consists of: • Trypcase soya broth • Substrate 35 mg/l • 0.5 MacFarland inoculum
(§3) The reduction of the substrate and the growth of the microorganisms are monitored using an Infinite® M200 Tecan microplate reader at 35° C. over 24 hours.
(§4) The growth is monitored by the absorbance at 660 nm and the reduction of the substrates by absorbance and fluorescence at the specific wavelengths indicated in Table III.
(§5) The substrate is considered as reduced by the microorganisms when the substrate is decolourized (monitored by the decrease in absorbance) (Decol) and/or when the fluorescence of the substrate is multiplied by 2 relative to the base fluorescence of a substrate-free control (Fluo). The growth is indicated by Co. The symbol “+” means good growth/decolourization/significant increase in fluorescence. The symbol “+/−” means difficult growth. The symbol “−” means that there is no growth/decolourization/significant increase in fluorescence. RED indicates whether the substrate is reduced (Y) or not (N).

[2] = system: Staphylococcus aureus; design: key to RED (substrate reduced or not): RED indicates whether the substrate is reduced (Y) or not (N); RED indicates whether the substrate is reduced (Y) or not (N); key to Co (growth, absorbance at 660 nm) / Decol (substrate decolourized, decrease in absorbance) / Fluo (fluorescence multiplied by 2 relative to substrate-free control): The symbol “+” means good growth/decolourization/significant increase in fluorescence; The symbol “+/−” means difficult growth; The symbol “−” means that there is no growth/decolourization/significant increase in fluorescence; conditions: S. aureus, substrate 35 mg/l
Protocol: as §1, §2, §3, §4, §5

[3] = system: Geotrichum candidum; design: key to RED (substrate reduced or not): RED indicates whether the substrate is reduced (Y) or not (N); RED indicates whether the substrate is reduced (Y) or not (N); key to Co (growth, absorbance at 660 nm) / Decol (substrate decolourized, decrease in absorbance) / Fluo (fluorescence multiplied by 2 relative to substrate-free control): The symbol “+” means good growth/decolourization/significant increase in fluorescence; The symbol “+/−” means difficult growth; The symbol “−” means that there is no growth/decolourization/significant increase in fluorescence; conditions: G. candidum, substrate 35 mg/l
Protocol: as §1, §2, §3, §4, §5

[4] = system: Candida albicans; design: key to RED (substrate reduced or not): RED indicates whether the substrate is reduced (Y) or not (N); RED indicates whether the substrate is reduced (Y) or not (N); key to Co (growth, absorbance at 660 nm) / Decol (substrate decolourized, decrease in absorbance) / Fluo (fluorescence multiplied by 2 relative to substrate-free control): The symbol “+” means good growth/decolourization/significant increase in fluorescence; The symbol “+/−” means difficult growth; The symbol “−” means that there is no growth/decolourization/significant increase in fluorescence; conditions: substrate 35 mg/l
Protocol: as §1, §2, §3, §4, §5

[5] = system: Pseudomonas aeruginosa; design: key to RED (substrate reduced or not): RED indicates whether the substrate is reduced (Y) or not (N); RED indicates whether the substrate is reduced (Y) or not (N); key to Co (growth, absorbance at 660 nm) / Decol (substrate decolourized, decrease in absorbance) / Fluo (fluorescence multiplied by 2 relative to substrate-free control): The symbol “+” means good growth/decolourization/significant increase in fluorescence; The symbol “+/−” means difficult growth; The symbol “−” means that there is no growth/decolourization/significant increase in fluorescence; conditions: P. aeruginosa, substrate 35 mg/l
Protocol: as §1, §2, §3, §4, §5

[6] = system: Cronobacter muytjensii; design: key to RED (substrate reduced or not): RED indicates whether the substrate is reduced (Y) or not (N); RED indicates whether the substrate is reduced (Y) or not (N); key to Co (growth, absorbance at 660 nm) / Decol (substrate decolourized, decrease in absorbance) / Fluo (fluorescence multiplied by 2 relative to substrate-free control): The symbol “+” means good growth/decolourization/significant increase in fluorescence; The symbol “+/−” means difficult growth; The symbol “−” means that there is no growth/decolourization/significant increase in fluorescence; conditions: E. muytjensii, substrate 35 mg/l
Protocol: as §1, §2, §3, §4, §5

[7] = system: Staphylococcus epidermidis; design: key to RED (substrate reduced or not): RED indicates whether the substrate is reduced (Y) or not (N); RED indicates whether the substrate is reduced (Y) or not (N); key to Co (growth, absorbance at 660 nm) / Decol (substrate decolourized, decrease in absorbance) / Fluo (fluorescence multiplied by 2 relative to substrate-free control): The symbol “+” means good growth/decolourization/significant increase in fluorescence; The symbol “+/−” means difficult growth; The symbol “−” means that there is no growth/decolourization/significant increase in fluorescence; conditions: S. epidermidis, substrate 35 mg/l
Protocol: as §1, §2, §3, §4, §5

[8] = system: Kocuria rosea; design: key to RED (substrate reduced or not): RED indicates whether the substrate is reduced (Y) or not (N); RED indicates whether the substrate is reduced (Y) or not (N); key to Co (growth, absorbance at 660 nm) / Decol (substrate decolourized, decrease in absorbance) / Fluo (fluorescence multiplied by 2 relative to substrate-free control): The symbol “+” means good growth/decolourization/significant increase in fluorescence; The symbol “+/−” means difficult growth; The symbol “−” means that there is no growth/decolourization/significant increase in fluorescence; conditions: K. rosea, substrate 35 mg/l
Protocol: as §1, §2, §3, §4, §5

[9] = system: Enterococcus faecalis; design: key to RED (substrate reduced or not): RED indicates whether the substrate is reduced (Y) or not (N); RED indicates whether the substrate is reduced (Y) or not (N); key to Decol (substrate decolourized, decrease in absorbance) / Fluo (fluorescence multiplied by 2 relative to substrate-free control) / Co (growth, absorbance at 660 nm): The symbol “+” means good growth/decolourization/significant increase in fluorescence; The symbol “+/−” means difficult growth; The symbol “−” means that there is no growth/decolourization/significant increase in fluorescence; conditions: E. faecalis, substrate 35 mg/l
Protocol: as §1, §2, §3, §4, §5

[10] = system: Acinetobacter baumanii; design: key to RED (substrate reduced or not): RED indicates whether the substrate is reduced (Y) or not (N); RED indicates whether the substrate is reduced (Y) or not (N); key to Decol (substrate decolourized, decrease in absorbance) / Fluo (fluorescence multiplied by 2 relative to substrate-free control) / Co (growth, absorbance at 660 nm): The symbol “+” means good growth/decolourization/significant increase in fluorescence; The symbol “+/−” means difficult growth; The symbol “−” means that there is no growth/decolourization/significant increase in fluorescence; conditions: A. baumannii, substrate 35 mg/l
Protocol: as §1, §2, §3, §4, §5

## O=S(=O)([O-])c1ccc2c(N=Nc3cccc4ccccc34)c(O)c(S(=O)(=O)[O-])cc2c1.[Na+].[Na+] [Bordeaux B]
[1]
  Co (growth, absorbance at 660 nm): +
  Decol (substrate decolourized, decrease in absorbance): −
  Fluo (fluorescence multiplied by 2 relative to substrate-free control): −
  RED (substrate reduced or not): N
[2]
  Co (growth, absorbance at 660 nm): +
  Decol (substrate decolourized, decrease in absorbance): −
  Fluo (fluorescence multiplied by 2 relative to substrate-free control): −
  RED (substrate reduced or not): N
[3]
  Co (growth, absorbance at 660 nm): +/−
  Decol (substrate decolourized, decrease in absorbance): −
  Fluo (fluorescence multiplied by 2 relative to substrate-free control): −
  RED (substrate reduced or not): N
[4]
  Co (growth, absorbance at 660 nm): +
  Decol (substrate decolourized, decrease in absorbance): −
  Fluo (fluorescence multiplied by 2 relative to substrate-free control): −
  RED (substrate reduced or not): N
[5]
  Co (growth, absorbance at 660 nm): +
  Decol (substrate decolourized, decrease in absorbance): −
  Fluo (fluorescence multiplied by 2 relative to substrate-free control): −
  RED (substrate reduced or not): N
[6]
  Co (growth, absorbance at 660 nm): +
  Decol (substrate decolourized, decrease in absorbance): −
  Fluo (fluorescence multiplied by 2 relative to substrate-free control): −
  RED (substrate reduced or not): N
[7]
  Co (growth, absorbance at 660 nm): +
  Decol (substrate decolourized, decrease in absorbance): −
  Fluo (fluorescence multiplied by 2 relative to substrate-free control): −
  RED (substrate reduced or not): N
[8]
  Co (growth, absorbance at 660 nm): −
  Decol (substrate decolourized, decrease in absorbance): −
  Fluo (fluorescence multiplied by 2 relative to substrate-free control): −
[9]
  Co (growth, absorbance at 660 nm): +
  Decol (substrate decolourized, decrease in absorbance): +
  Fluo (fluorescence multiplied by 2 relative to substrate-free control): +
  RED (substrate reduced or not): Y
[10]
  Co (growth, absorbance at 660 nm): +
  Decol (substrate decolourized, decrease in absorbance): −
  Fluo (fluorescence multiplied by 2 relative to substrate-free control): −
  RED (substrate reduced or not): N

## O=S(=O)([O-])c1ccc2c(N=Nc3ccccc3)c(O)c(S(=O)(=O)[O-])cc2c1.[Na+].[Na+] [Ponceau 2G]
[1]
  Co (growth, absorbance at 660 nm): +
  Decol (substrate decolourized, decrease in absorbance): −
  Fluo (fluorescence multiplied by 2 relative to substrate-free control): −
  RED (substrate reduced or not): N
[2]
  Co (growth, absorbance at 660 nm): +
  Decol (substrate decolourized, decrease in absorbance): −
  Fluo (fluorescence multiplied by 2 relative to substrate-free control): −
  RED (substrate reduced or not): N
[3]
  Co (growth, absorbance at 660 nm): +/−
  Decol (substrate decolourized, decrease in absorbance): −
  Fluo (fluorescence multiplied by 2 relative to substrate-free control): −
  RED (substrate reduced or not): N
[4]
  Co (growth, absorbance at 660 nm): +
  Decol (substrate decolourized, decrease in absorbance): −
  Fluo (fluorescence multiplied by 2 relative to substrate-free control): −
  RED (substrate reduced or not): N
[5]
  Co (growth, absorbance at 660 nm): +
  Decol (substrate decolourized, decrease in absorbance): −
  Fluo (fluorescence multiplied by 2 relative to substrate-free control): −
  RED (substrate reduced or not): N
[6]
  Co (growth, absorbance at 660 nm): +
  Decol (substrate decolourized, decrease in absorbance): −
  Fluo (fluorescence multiplied by 2 relative to substrate-free control): −
  RED (substrate reduced or not): N
[7]
  Co (growth, absorbance at 660 nm): +
  Decol (substrate decolourized, decrease in absorbance): −
  Fluo (fluorescence multiplied by 2 relative to substrate-free control): −
  RED (substrate reduced or not): N
[8]
  Co (growth, absorbance at 660 nm): −
  Decol (substrate decolourized, decrease in absorbance): −
  Fluo (fluorescence multiplied by 2 relative to substrate-free control): −
[9]
  Co (growth, absorbance at 660 nm): +
  Decol (substrate decolourized, decrease in absorbance): +
  Fluo (fluorescence multiplied by 2 relative to substrate-free control): −
  RED (substrate reduced or not): Y
[10]
  Co (growth, absorbance at 660 nm): +
  Decol (substrate decolourized, decrease in absorbance): −
  Fluo (fluorescence multiplied by 2 relative to substrate-free control): −
  RED (substrate reduced or not): N
